{"source": "paper PMC10778758", "about": "“Dithioethanol (DTE)-Conjugated Deoxyribose Cyclic Dinucleotide Prodrugs (DTE-dCDNs) as STING Agonist” (International Journal of Molecular Sciences, 2023)", "key": {"[1]": {"tested_on": "THP-1 cells", "experiment": "ELISA of IFN-β protein levels in THP-1 culture supernatants", "type": "cell-based, human", "conditions": "4 h", "procedure": "Enzyme-Linked Immunosorbent Assay (ELISA). THP-1 cells were incubated with the compounds for 4 h. Cell culture supernatants were then analyzed via ELISA for human IFN-β levels (ABclonal, Woburn, MA, USA, catalogue no. RK01630) according to the manufacturer’s instructions. […]\n(§1) expression levels of IFN-β were assessed by real-time quantitative PCR (qPCR) under the treatment of prodrug 9 (10 μM), 3′,3′-c-di-dAMP (100 μM), 2′,3′-cGAMP (100 μM) and ADU-S100 (10 μM) for 4 h.\nFigure S3. Prodrug 9 stimulated the production of IFN-β in THP-1 cells. Under the treatment of prodrug […]\nlevels of IFN-β were assessed by an enzyme-linked immunosorbent assay (ELISA).\n(also on this page, place not known: t reatment -S100 9 3',3'-c-di-dAMPADU-S100 IFN-β/β-actin IFN-β in Culture Medium (pg/ml)) […]"}, "[2]": {"experiment": "Release of parent dCDN from prodrug 9 initiated by DTT or GSH (HPLC)", "type": "in vitro ADME", "procedure": "To analyze the reduction dependency, we performed the in vitro cleavage test by incubating prodrug 9 with a reductive substance such as GSH or DTT and cell lysates at 37 °C and then determined the change with HPLC. […] As the reductive substance or cell lysates were added, the peak for prodrug 9 disappeared and the new peaks at 1.2 min appeared in 0.5 h and 2 h, respectively. The released parent dCDN was also confirmed with 3′,3′-c-di-dAMP through UPLC-MS (Figure S1).\nAmounts of 10 mM DTT or GSH were added into prodrug 9 (100 μM) in an air-bath incubator at 37 °C for 0.5 h. Afterwards, 10 μL of each mixture was injected into HPLC for analysis. The HPLC methodology was the same as above.\nFigure 3 Parent dCDNs release in GSH, DTT (a), and cell lysates (b). An amount of 100 μM prodrug 9 was added into the 10 mM GSH, 10 mM DTT, and cell lysates for various times (0.5 h and 2 h) at 37 °C and analyzed with HPLC (Agilent 1260, Santa Clara, CA, USA)."}, "[3]": {"tested_on": "CT-26 cells", "experiment": "RT-qPCR of IFN-β mRNA in CT-26 cells", "type": "cell-based", "conditions": "CT-26, prodrug 9 and ADU-S100 10 μM, CDNs 100 μM, 4 h", "procedure": "Real-time quantitative PCR (RT-qPCR). The mRNA expression levels of diverse cytokines were measured using quantitative RT-PCR (RT-qPCR) assays. THP-1 cells or CT26 cells were incubated with the compounds for 4 h, subsequently harvested for RNA isolation according to the manufacturer’s instructions of RNApure Tissue&Cell Kit (DNase I) (CWBIO, Cambridge, MA, USA catalogue no. CW0560S). Next, 1 μg RNA was reversely transcribed to cDNA by TransScript All-in-One First-Strand cDNA Synthesis SuperMix for qPCR (One-Step gDNA Removal) (TransGen, Beijing, China). To examine the mRNA levels, real-time PCR was performed in a CFX96 Real-Time PCR system (Bio-RAD, Hercules, CA, USA) using PerfectStart Green qPCR Super Mix (TransGen) and primers (Sangon Biotech, Shanghai, China). The expression level was calculated according to the formula (2^−∆∆Ct) using the GAPDH or β-actin as the internal reference gene and the relative gene expression fold was normalized to the DMSO-treated cells. The THP-1 and CT26 cell lines were obtained from American Type Culture Collection (ATCC, Manassas, VA, USA). […]\nas §1\nFigure S3. […]\nlevels of IFN-β were assessed by an enzyme-linked immunosorbent assay (ELISA). […]"}, "[4]": {"experiment": "In vitro serum stability assay in 20% fetal bovine serum", "type": "in vitro ADME", "conditions": "bovine, 20% fetal bovine serum, pH 7.4, 20% FBS, 37 °C, read-out: T1/2 (half-life period) (converted)", "procedure": "In vitro serum stability assay. Each compound (100 μM) was incubated at 37 °C in the reaction buffer including 20% fetal bovine serum (FBS, GIBCO, Thermo Fisher Scientific, Waltham, MA, USA), 10 mM PBS (pH 7.4), and 1 mM MgCl2. At various times, aliquots of the reaction mixture were collected and stopped by adding 50 μL MeCN and diluted with 50 μL water. The reaction mixture was then centrifuged at 10,000 rpm for 5 min, leaving 100 μL supernatant for the HPLC assay. An amount of 10 μL of each aliquot was injected directly into HPLC (Agilent 1260 Infinity HPLC equipped with a UV detector; column Agilent ZORABX SB-C18 5 μm [4.6 × 150 mm; detection at 254 nm; column temperature 25 °C] for analysis. Amounts of 10 mM TEAA buffer (solvent A) and MeCN (solvent B) were used as the mobile phase with a flow rate of 1 mL/min. The gradient was set as the following: 0–2 min: 98% A/2% B; 2–6 min: 98% A/2% B to 100% B; 6–10 min: 100% B; 10–13 min: 100% B to 98% A/2% B; 13–15 min: 98% A/2% B. The % remaining of the test compounds after incubation in the serum was then calculated.\nFigure 4 Parent dCDN of DTE-dCDN prodrug 9 retained a high serum stability. The serum stability analysis of (a) prodrug 9, (b) 3′,3′-c-di-dAMP, (c) 2′,3′-cGAMP and (d) ADU-S100 were determined in 20% FBS. Each compound (100 μM) was incubated in 20% FBS at 37 °C. At various times (0, 2, 4, 8, 12, 24, 48, 72 h), aliquots of the reaction mixture were analyzed with HPLC at 254 nm. The % remaining of test compounds after incubation in serum was calculated."}}, "data": [{"molecule": "Nc1ncnc2c1ncn2C1CC2OP(=O)(OCCSSc3ccccn3)OCC3OC(n4cnc5c(N)ncnc54)CC3OP(=O)(OCCSSc3ccccn3)OCC2O1", "note": "(stereo not shown) [prodrug 9]", "values": [{"measurement": "IFN-β protein level, fold compared to 2′,3′-cGAMP", "setting": "[1]; THP-1, prodrug 9 10 μM vs 2′,3′-cGAMP 100 μM", "value": "approximately 66 fold"}, {"measurement": "IFN-β protein level, fold compared to 3′,3′-c-di-dAMP", "setting": "[1]; THP-1, prodrug 9 10 μM vs 3′,3′-c-di-dAMP 100 μM", "value": "~4.3", "unit": "fold"}, {"measurement": "IFN-β protein level, fold compared to ADU-S100", "setting": "[1]; THP-1, prodrug 9 10 μM vs ADU-S100 10 μM", "value": "~5.6", "unit": "fold"}, {"measurement": "time at which prodrug peak disappeared and parent dCDN peak appeared", "setting": "[2]; 100 μM prodrug, 10 mM GSH or DTT, 37 °C", "value": 0.5, "unit": "h"}, {"measurement": "time to decompose and release the parent dCDN", "setting": "[2]; reductive substance GSH or DTT", "value": 30, "unit": "min"}, {"measurement": "induction of IFN-β transcription in CT-26 cells", "setting": "[3]", "value": "did not"}, {"measurement": "half-life at 100 μM", "setting": "[4]", "value": 28, "unit": "h"}]}]}
